Data from ChEMBL document CHEMBL1201862, “PubChem BioAssay data set” (2004).
Activity calls are given as the source filed them.

How the values were obtained:
[1] = target: T1, Caspase-6 (Homo sapiens, UniProt P55212); experiment: human caspase-6 inhibitors, dose response, biochemical, VEID-R110 fluorescence, cherry-pick (AID 720632)
T1 sequence (P55212 whole entry): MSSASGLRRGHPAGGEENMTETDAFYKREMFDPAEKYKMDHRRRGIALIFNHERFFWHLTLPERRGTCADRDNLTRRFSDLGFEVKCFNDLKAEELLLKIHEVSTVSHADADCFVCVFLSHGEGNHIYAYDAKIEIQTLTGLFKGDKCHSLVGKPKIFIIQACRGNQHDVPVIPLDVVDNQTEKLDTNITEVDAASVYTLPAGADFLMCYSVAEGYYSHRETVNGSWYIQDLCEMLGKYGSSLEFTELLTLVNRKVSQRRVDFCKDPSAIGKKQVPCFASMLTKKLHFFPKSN

[2] = target: T2, Fatty acid synthase (Homo sapiens, UniProt P49327); experiment: FAS thioesterase domain inhibitors, dose response, biochemical, kinetic fluorescence intensity (AID 624326); assay type: functional;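 further: rate of fluorescence rise from hydrolysis of a fluorogenic O-methyl fluorescein ester substrate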
T2 sequence (P49327 whole entry, the tested form may be a part): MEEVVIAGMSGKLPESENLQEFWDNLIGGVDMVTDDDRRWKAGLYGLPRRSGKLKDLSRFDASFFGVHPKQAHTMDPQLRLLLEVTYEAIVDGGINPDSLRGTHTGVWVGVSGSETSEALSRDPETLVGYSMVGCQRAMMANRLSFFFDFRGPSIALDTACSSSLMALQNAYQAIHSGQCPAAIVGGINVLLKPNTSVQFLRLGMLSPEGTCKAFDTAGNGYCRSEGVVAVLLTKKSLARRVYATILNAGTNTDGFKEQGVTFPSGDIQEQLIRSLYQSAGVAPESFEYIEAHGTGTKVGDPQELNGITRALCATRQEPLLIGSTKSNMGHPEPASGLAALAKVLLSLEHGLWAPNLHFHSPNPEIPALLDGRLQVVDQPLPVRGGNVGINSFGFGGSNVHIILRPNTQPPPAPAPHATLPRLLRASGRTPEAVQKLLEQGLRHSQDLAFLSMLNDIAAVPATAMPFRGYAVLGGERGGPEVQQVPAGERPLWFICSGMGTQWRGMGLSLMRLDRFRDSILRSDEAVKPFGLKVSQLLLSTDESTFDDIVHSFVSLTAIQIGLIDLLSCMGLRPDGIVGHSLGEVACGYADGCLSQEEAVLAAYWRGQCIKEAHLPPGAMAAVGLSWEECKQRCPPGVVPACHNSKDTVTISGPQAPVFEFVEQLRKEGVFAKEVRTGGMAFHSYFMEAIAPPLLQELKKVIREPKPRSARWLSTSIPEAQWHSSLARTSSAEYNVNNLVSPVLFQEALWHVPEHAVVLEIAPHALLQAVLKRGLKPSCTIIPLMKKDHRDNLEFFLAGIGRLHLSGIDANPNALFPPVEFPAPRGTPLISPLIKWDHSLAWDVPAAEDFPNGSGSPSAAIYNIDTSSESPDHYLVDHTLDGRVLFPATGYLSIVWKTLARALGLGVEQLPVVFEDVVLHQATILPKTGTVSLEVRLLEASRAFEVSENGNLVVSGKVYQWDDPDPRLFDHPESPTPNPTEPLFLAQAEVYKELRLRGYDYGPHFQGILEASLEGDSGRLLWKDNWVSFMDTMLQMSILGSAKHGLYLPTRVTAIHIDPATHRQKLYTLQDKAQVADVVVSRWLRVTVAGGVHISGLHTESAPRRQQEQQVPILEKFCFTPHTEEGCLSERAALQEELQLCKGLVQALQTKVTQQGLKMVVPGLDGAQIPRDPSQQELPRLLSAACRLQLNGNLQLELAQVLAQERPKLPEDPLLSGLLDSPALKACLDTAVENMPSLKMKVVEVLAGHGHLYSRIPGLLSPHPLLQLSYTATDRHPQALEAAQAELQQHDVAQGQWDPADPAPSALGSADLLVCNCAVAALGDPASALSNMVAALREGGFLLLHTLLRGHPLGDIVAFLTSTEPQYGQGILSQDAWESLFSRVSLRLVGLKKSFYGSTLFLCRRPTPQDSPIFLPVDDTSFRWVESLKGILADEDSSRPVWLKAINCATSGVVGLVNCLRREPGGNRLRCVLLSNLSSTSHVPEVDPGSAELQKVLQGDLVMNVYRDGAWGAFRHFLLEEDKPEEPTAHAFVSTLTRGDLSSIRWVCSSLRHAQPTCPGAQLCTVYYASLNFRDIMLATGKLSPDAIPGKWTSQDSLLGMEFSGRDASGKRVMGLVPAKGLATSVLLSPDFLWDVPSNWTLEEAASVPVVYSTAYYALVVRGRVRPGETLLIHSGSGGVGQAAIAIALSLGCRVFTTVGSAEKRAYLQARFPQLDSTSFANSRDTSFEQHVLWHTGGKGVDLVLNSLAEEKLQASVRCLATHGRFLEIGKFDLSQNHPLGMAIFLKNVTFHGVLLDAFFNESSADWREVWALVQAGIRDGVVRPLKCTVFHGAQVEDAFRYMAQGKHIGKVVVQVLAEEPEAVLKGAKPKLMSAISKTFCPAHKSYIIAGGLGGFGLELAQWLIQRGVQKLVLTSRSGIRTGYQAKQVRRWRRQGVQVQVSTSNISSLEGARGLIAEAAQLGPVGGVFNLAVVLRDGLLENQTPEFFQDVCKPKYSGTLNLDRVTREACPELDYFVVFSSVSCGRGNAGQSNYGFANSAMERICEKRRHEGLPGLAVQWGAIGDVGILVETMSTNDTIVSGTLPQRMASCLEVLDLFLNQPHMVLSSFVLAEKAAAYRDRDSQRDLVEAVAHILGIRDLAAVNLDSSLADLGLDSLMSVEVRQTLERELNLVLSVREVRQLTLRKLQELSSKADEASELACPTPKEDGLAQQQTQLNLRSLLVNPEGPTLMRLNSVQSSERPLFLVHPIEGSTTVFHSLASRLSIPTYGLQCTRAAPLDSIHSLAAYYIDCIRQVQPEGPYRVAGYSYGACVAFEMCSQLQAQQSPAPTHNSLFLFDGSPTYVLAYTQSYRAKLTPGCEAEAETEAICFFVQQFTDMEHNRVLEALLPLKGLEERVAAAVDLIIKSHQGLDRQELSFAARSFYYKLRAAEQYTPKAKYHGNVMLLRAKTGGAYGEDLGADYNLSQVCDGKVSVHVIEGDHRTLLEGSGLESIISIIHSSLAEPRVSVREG

[3] = target: T2, Fatty acid synthase; experiment: FAS thioesterase domain inhibitors, dose response, biochemical, endpoint fluorescence intensity, uHTS hits (AID 624327); assay type: functional;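 further: fluorescence from hydrolysis of an O-methyl fluorescein acyl ester substrate by the enzyme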
[4] = target: T3, Sentrin-specific protease 6 (Homo sapiens, UniProt Q9GZR1); assay type: functional;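 further: Luminescence-based dose-response confirmatory assay of SENP6 inhibition, following up an ultra-high-throughput screen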
T3 sequence (Q9GZR1 whole entry): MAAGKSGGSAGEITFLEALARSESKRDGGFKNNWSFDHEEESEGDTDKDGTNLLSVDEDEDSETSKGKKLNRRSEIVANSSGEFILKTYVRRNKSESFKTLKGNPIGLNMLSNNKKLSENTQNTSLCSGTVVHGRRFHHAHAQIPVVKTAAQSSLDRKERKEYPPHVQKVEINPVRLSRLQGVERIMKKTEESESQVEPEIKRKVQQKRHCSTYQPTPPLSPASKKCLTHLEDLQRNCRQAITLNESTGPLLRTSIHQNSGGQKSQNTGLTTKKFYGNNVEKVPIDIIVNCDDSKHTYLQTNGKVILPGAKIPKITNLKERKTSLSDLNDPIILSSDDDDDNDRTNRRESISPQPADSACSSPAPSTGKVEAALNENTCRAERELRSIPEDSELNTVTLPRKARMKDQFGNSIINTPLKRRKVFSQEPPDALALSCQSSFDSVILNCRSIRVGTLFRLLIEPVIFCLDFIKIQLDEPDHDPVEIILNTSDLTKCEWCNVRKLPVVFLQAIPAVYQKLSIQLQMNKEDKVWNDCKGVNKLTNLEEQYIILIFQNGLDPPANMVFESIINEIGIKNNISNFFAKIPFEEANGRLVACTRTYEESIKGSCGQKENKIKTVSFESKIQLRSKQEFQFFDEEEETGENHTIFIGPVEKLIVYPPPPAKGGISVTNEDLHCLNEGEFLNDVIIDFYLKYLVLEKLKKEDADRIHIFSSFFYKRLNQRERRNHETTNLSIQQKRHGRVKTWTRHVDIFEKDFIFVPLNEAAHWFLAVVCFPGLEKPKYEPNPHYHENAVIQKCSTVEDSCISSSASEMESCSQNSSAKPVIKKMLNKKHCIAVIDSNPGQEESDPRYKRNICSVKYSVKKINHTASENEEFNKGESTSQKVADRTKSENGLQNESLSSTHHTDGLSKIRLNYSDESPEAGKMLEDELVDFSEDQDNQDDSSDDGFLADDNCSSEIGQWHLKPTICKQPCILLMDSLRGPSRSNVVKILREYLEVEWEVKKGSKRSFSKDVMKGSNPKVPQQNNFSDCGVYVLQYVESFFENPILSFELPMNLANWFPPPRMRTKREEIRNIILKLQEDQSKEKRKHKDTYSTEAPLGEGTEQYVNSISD

[5] = target: T4, Sentrin-specific protease 8 (Homo sapiens, UniProt Q96LD8); assay type: functional;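 further: luminescence read-out of SENP8 inhibition, dose-response confirmation following an ultra-high-throughput screen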
T4 sequence (Q96LD8 whole entry): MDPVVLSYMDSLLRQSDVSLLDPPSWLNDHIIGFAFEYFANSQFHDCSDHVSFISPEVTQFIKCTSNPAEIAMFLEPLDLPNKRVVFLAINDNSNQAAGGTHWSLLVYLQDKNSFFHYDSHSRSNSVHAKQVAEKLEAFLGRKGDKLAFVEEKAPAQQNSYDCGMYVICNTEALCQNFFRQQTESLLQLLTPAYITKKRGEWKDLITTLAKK

[6] = target: T5, Caspase-3 (Homo sapiens, UniProt P42574); assay type: functional;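 further: Dose-response selectivity test against caspase-3 for candidate inhibitors of sentrin-specific proteases (SENPs)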
T5 sequence (P42574 whole entry): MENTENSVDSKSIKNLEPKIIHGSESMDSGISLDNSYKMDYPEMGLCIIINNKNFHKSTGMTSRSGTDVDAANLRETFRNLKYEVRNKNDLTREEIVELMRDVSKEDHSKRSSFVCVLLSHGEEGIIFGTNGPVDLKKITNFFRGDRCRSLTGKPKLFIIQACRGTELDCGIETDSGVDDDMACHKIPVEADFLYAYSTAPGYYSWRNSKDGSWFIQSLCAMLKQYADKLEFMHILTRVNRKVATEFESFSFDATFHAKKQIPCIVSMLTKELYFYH

[7] = target: T6, Sentrin-specific protease 7 (Homo sapiens, UniProt Q9BQF6); assay type: functional;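 further: Luminescence-based dose-response confirmation of ultra-high-throughput screening hits, measuring inhibition of SENP7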
T6 sequence (Q9BQF6 whole entry): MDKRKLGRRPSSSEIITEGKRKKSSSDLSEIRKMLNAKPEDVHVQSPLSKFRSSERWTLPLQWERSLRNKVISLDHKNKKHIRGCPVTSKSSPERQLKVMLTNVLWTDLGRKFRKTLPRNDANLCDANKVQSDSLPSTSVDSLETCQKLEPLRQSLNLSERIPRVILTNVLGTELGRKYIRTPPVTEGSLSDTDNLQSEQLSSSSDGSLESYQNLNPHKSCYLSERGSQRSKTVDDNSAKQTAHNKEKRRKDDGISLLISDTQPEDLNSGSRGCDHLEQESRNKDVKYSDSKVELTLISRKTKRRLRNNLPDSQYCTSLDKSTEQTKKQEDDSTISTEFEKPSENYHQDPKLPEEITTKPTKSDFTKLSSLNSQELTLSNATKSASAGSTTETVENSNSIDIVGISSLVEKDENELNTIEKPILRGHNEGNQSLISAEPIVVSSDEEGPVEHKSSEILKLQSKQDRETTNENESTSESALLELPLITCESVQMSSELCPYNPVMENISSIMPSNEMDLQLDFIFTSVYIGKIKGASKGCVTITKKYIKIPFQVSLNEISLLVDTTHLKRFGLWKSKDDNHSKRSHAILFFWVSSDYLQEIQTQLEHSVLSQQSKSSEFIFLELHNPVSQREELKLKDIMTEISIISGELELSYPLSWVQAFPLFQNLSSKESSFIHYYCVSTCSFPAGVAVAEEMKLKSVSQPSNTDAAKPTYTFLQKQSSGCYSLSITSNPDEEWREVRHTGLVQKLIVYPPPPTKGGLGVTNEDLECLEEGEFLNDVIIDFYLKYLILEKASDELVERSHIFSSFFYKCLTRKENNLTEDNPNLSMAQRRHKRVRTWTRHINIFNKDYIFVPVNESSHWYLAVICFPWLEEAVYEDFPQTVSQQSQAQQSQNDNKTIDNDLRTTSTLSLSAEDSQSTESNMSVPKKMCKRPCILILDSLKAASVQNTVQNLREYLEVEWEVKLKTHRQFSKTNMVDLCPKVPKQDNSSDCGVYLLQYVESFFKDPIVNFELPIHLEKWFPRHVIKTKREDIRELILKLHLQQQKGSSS

[8] = target: T7, Streptokinase A (Streptococcus pyogenes serotype M1, UniProt P10520); experiment: S. pyogenes streptokinase expression inhibitors, potency, dose response, plasminogen activation absorbance, OD405 (AID 1914); assay type: functional, Streptococcus pyogenes M1 GAS;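 further: secreted streptokinase activity via plasminogen activation per viability signal from cell pellet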
T7 sequence (P10520 whole entry): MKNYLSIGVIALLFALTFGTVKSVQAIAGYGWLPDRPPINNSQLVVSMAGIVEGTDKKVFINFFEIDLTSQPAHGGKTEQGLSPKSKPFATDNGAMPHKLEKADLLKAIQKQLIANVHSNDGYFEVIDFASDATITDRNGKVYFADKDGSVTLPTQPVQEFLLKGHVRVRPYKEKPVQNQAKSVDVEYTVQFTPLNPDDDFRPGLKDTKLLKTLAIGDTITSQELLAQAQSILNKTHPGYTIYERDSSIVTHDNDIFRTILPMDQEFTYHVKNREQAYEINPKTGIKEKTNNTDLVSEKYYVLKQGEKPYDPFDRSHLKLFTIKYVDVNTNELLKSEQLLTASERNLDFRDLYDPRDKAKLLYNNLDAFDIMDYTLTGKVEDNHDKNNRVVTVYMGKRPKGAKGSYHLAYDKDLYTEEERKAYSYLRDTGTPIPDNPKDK

[9] = tested on: Streptococcus sp. 'group A'; experiment: growth inhibition of control SK(-) GAS strain, dose response, counter-screen for streptokinase expression inhibitor project, luminescence, kanamycin, BacTiterGlo, confirmation (AID 1900); assay type: functional, organism-based
[10] = tested on: BJ; experiment: cytotoxicity toward Ras-transformed BJeLR fibroblasts, dose response, cell-based, alamar blue fluorescence, cherrypicked samples (AID 2631); assay type: functional; conditions: Homo sapiens;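 further: confirmatory dose-response assay in RAS-dependent BJ fibroblasts engineered with TERT, LT and ST, with cytotoxicity read by fluorescence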
[11] = tested on: Streptococcus; experiment: Group A Streptococcus viability loss, dose response, counter-screen for streptokinase expression inhibitor project, luminescence, BacTiterGlo (AID 1915); assay type: functional, organism-based;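 further: potency for reduction of bacterial viability or growth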
[12] = target: Prothrombin (Homo sapiens, UniProt P00734); experiment: Thrombin 1536 HTS Dose Response Confirmation. [Related pubchem assays: 1046 (Thrombin 1536 HTS; hits were confirmed in this assay)]; assay type: functional
[13] = tested on: BJ; experiment: cytotoxicity toward BJ-TERT-LT-ST fibroblasts, dose response, cell-based, RAS-independent, luminescence (AID 1935); assay type: functional; conditions: Homo sapiens;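 further: BJ fibroblasts immortalized with TERT plus LT and ST oncogenes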
[14] = cytotoxicity toward DRD oncogenic fibroblasts, dose response, cell-based, non-viral oncogenic, luminescence (AID 1934); assay type: functional; conditions: Homo sapiens
[15] = tested on: BJ; experiment: cells; assay type: functional, cell-based; conditions: Homo sapiens
[16] = tested on: BJ; experiment: cytotoxicity toward BJ-TERT fibroblasts, dose response, cell-based, RAS-independent, luminescence (AID 1933); assay type: functional; conditions: Homo sapiens

Structure (SMILES): Cc1ccccc1S(=O)(=O)N1[C@@H]2CNC[C@H]1[C@@H]2c1ccc(-c2ccc(C#N)cc2)cc1
- AC50 [1]: 30.9 µM (active)

Structure (SMILES): Cc1ccc([N+](=O)[O-])cc1S(=O)(=O)Nc1ccc(-c2ccc(N3CCCC3)nn2)cc1
- IC50 [2]: 8.02 µM (active)
- IC50 [3]: 13.7 µM (active)

Structure (SMILES): Cc1ccccc1CN1[C@@H](C)[C@H](c2ccccc2)Oc2cccc(NCC(C)C)c2S1(=O)=O
- AC50 [1]: 23.3 µM (active)

Structure (SMILES): CCOc1ccc(/C=C2\CCc3ccccc3C2=O)cc1
- IC50 [4]: 1.42 µM (active)
- IC50 [5]: 1.88 µM (active)
- IC50 [6]: 1.5 µM (active)
- IC50 [7]: 1.22 µM (active)

Structure (SMILES): Cc1ccc(C(=O)Nc2ccc3c(c2)OCO3)cc1Cl
- IC50 [4]: > 100 µM (inactive)
- IC50 [5]: > 100 µM (inactive)
- IC50 [6]: 13.4 µM (active)
- IC50 [7]: 5.94 µM (active)

Structure (SMILES): O=C(c1ccc2c3n(nc2c1)-c1ccccc1CO3)N1CCCCC1
- EC50 [8]: > 150 µM (not active)
- EC50 [9]: 11.9 µM (active)
- EC50 [10]: > 133 µM (inactive)
- EC50 [11]: 30.6 µM (active)

Structure (SMILES): O=C(NNC(=O)C(c1ccccc1)c1ccccc1)c1cccs1
- IC50 [12]: > 50 µM (not active)

Structure (SMILES): O=C(CCCCCCCCCCC(=O)NCc1cccnc1)NCc1cccnc1
- EC50 [13]: > 150 µM (inconclusive)
- EC50 [10]: > 133 µM (inactive)
- EC50 [14]: > 150 µM (not active)
- EC50 [15]: 1.85 µM (inconclusive)
- EC50 [16]: > 75 µM (not active)

Structure (SMILES): O=C(Nc1nnc(C(F)(F)F)s1)c1ccc(Br)s1
- IC50 [4]: 22.6 µM (active)
- IC50 [5]: 24.1 µM (active)
- IC50 [6]: 18.8 µM (active)
- IC50 [7]: 15.5 µM (active)

Structure (SMILES): CC1CCc2c(sc3nc(CN4CCN(S(=O)(=O)c5ccccc5[N+](=O)[O-])CC4)nc(O)c23)C1 (stereo not drawn)
- IC50 [2]: 4.55 µM (active)
- IC50 [3]: 4.32 µM (active)

Structure (SMILES): CCC12CCCN3CCc4c(n(c5ccccc45)C(O)(C(=O)OC)C1)C32 (stereo not drawn)
- AC50 [1]: 21.7 µM (active)

Structure (SMILES): CCOC(=O)c1ccc(-c2ccc3c(c2)CCC3)nc1C
- IC50 [4]: 26.3 µM (active)
- IC50 [5]: 45.2 µM (active)
- IC50 [6]: 22.8 µM (active)
- IC50 [7]: 6.3 µM (active)

Structure (SMILES): CC(C)(C)NC(=O)NC(=O)COC(=O)C1CCN(S(=O)(=O)c2cccs2)CC1
- IC50 [2]: 9.75 µM (active)
- IC50 [3]: 12.8 µM (active)

Structure (SMILES): CCC(=O)n1nc(-c2ccco2)nc1SCc1ccccc1
- IC50 [12]: 0.00342 µM (active)

Structure (SMILES): COc1ccccc1NC(=O)CCS(=O)(=O)c1ccccc1
- IC50 [12]: > 50 µM (not active)

Structure (SMILES): CC(C)Oc1ccc2c(=O)c(-c3ccccc3)coc2c1 [IPRIFLAVONE]
- IC50 [4]: 57.2 µM (active)
- IC50 [5]: 94.8 µM (active)
- IC50 [6]: 19.7 µM (active)
- IC50 [7]: 5.35 µM (active)

Structure (SMILES): O=C(CCC(=O)Nc1ccc(F)cc1)N/N=C/c1cc([N+](=O)[O-])ccc1O
- IC50 [2]: 15.1 µM (active)
- IC50 [3]: 22.6 µM (inactive)

Structure (SMILES): COc1cc(CNc2nc(C)c([N+](=O)[O-])c(C)c2C#N)cc(OC)c1OC
- IC50 [2]: 80 µM (inactive)
- IC50 [3]: 61.3 µM (inactive)

Structure (SMILES): CCOC(=O)c1c(NC(=O)CSc2nnc(-c3ccccc3C)n2C)sc(C(C)=O)c1C
- IC50 [2]: 3.03 µM (active)
- IC50 [3]: 9.71 µM (active)

Structure (SMILES): CC(Sc1nnc(-c2cc3ccccc3o2)n1-c1ccccc1)C(=O)O (stereo not drawn)
- IC50 [12]: > 50 µM (not active)
